# Measurements from patent US7348330B2, “1-azabicyclo [2,2,2] octan-3-one derivatives” (Aprea AB, priority 2000, dated 2008).
# Key:
# [1] = tested on: Saos-2-His-273 cells; assay: WST-1 growth suppression assay; type: cell-based, human
# Method: (§1) Saos-2-His-273 cell line stably transfected with construct allowing expression of mutant His-273 p53 in a tetracycline-dependent manner was used for screening (Selivanova et al., 1997). p53 expression was inhibited by incubation of cells with doxycycline (5 μg/ml). Cells were grown in 96-well plates at a density of 3000 cells per well with or without doxycycline and treated with 25 μM of the compounds from the NCI library of low molecular weight (LMW) compounds. After 48 hours of incubation the proliferative cell reagent WST-1 (Roche) was added to the cells. The degree of WST-1 reduction, which reflects cell viability, was measured by microplate reader at λ490 nm according to the manufacturer (Roche).
# as §1, with “1997).” for “1997). p53 expression was inhibited by incubation of cells with doxycycline (5 μg/ml).”, “doxycycline. The treatment was done at a concentration of” for “doxycycline and treated with”, “each chemical” for “the compounds”, “is proportional to the” for “reflects”, “by a” for “by”
# Saos-2-His-273 cells grown in the presence or absence of doxycycline and parental Saos-2 cells were treated with the structural analogs and analyzed as described above. The effect of structural analogs on cell growth was tested using different concentrations of the compounds, ranging from 2.5 to 25 μM. Compounds MIRA-2, MIRA-3 and PRIMA-2, PRIMA-3 were identified that were able to suppress the growth of Saos-2-His-273 cells expressing mutant p53 (tet−). […] In addition, compounds MIRA-2 and MIRA-3 suppressed the growth of cells in a mutant p53-dependent manner at 10 μM concentration, in contrast to 25 μM of compound MIRA-1 required for the selective effect.
# [2] = tested on: Saos-2 cells lacking p53; assay: Colony formation assay; type: cell-based, human; conditions: 5 µM of compound; colonies after 14 days
# Description: Colonies were stained with Giemsa and counted 14 days after seeding.
# The cells were Giemsa stained and scored for the appearance of colonies after 14 days.
# [3] = tested on: Saos-2-His-273 cells; assay: FACS analysis of apoptosis (sub-G1, propidium iodide); type: cell-based, human; conditions: for p53 dependence of apoptosis induction: cells grown in presence or absence of doxycyclin; for time after treatment at which apoptosis/cell death is evident: data not shown
# Method: (§2) Induction of apoptosis was determined by FACS analysis of ethanol fixed cells stained with propidium iodide (PI) as percentage of a sub-G1 population. […] The percentage of dead cells in non-treated cultures and in controls treated with caspase inhibitors only was subtracted. […] Hoechst staining was used to stain cell nuclei. […] The percentage of apoptotic cells was measured by FACS analysis as it was described in Figure.
# (§3) Cells were placed on 12-well plate at a density of 30000/cm^2 and treated with compounds. After 48 h incubation cells were harvested by trypsinization, fixed with 70% ethanol, treated with RNase A (0.25 mg/ml) and stained with propidium iodide (0.02 mg/ml). Samples were analyzed on a Becton Dickinson FACScan. Data were analyzed by the CellQuest software, version 3.2.1.
# Induction of cell death was determined by FACS analysis of ethanol-fixed cells stained with propidium iodide (PI) as percentage of sub-G1 population.
# [4] = tested on: p53-null Saos-2 cells; assay: as above; type: cell-based, human; parameters: dose or concentration left out as unconfirmed
# Method: as §2, §3
# [5] = molecular target: T1, GST-wild type p53 protein (Homo sapiens, UniProt P04637); assay: ELISA with conformation-specific antibodies, recombinant protein; type: biochemical
# T1 construct: made in house
# Method: 20 ng of GST-wtp53, GST-mtp53-175 and GST-mtp53-248 were heated at 37° C. for 30 min or kept on ice. The procedure was performed with or without tested compounds. The ELISA analyses were done as described by (Foster et al., 1999). Briefly, after the treatment, samples were diluted with coating buffer (150 mM KCL, 25 mM HEPES) supplemented with 10 mM DTT. The whole mixture was apply to ELISA plates (MaxiSorp, Nunc) and incubated at +4° C. for 35 min. The wells were washed with coating buffer. The wells were blocked by 5% skim milk in PBS by incubating at +4° C. for 1 h. […] Samples were incubated at +4° C. for 30 min. Wells were rinsed twice with PBS. After that, a secondary antibody (anti-mouse, conjugated with horse radish peroxidase) was incubated with samples at +4° C. for 30 min. Then plates were washed 5 times with PBS and a peroxidase substrate was added. An absorbance at λ405 nm was monitored by ELISA reader.
# [6] = tested on: 14 mutant p53 proteins; assay: Band shift assays, extracts of tumor cell lines; type: biochemical, human; conditions: of 14 mutants tested
# Method: The GST-p53 proteins were prepared as described (Selivanova et al., 1997). Band shift assays were performed in binding buffer containing 100 mM HEPES pH 7.5, 50 mM KCl , 1 mg/ml BSA, 0.1% Triton X-100, 2 mM MgCl2 and 1 mM DTT essentially as in (Selivanova et al., 1996).
# The compound MIRA-1 restored the DNA binding of 3 out of 14 mutant p53 proteins (Table III).
# [7] = tested on: SW480 colon carcinoma cells carrying endogenous His-273 mutant p53; assay: Western blot of p53 target genes p21 and MDM2; type: cell-based; conditions: Western blotting
# Description: In order to assess the effect of the analogs on the transcriptional transactivation function of mutant p53, we tested the expression of p53 target genes after treatment with analogs of colon carcinoma cells SW480 expressing endogenous His-273 mutant p53.
# [8] = tested on: HCT116 colon carcinoma cells that carry wild type p53; assay: Western blot of p53 target genes p21 and MDM2; type: cell-based
# [9] = tested on: A431 cells that carry endogenous His-273 mutant p53; assay: p53-responsive lacZ reporter; type: cell-based; conditions: 50 μM for 20 hours
# [10] = tested on: Saos-2-His-273 cells; assay: Anti-tumor activity, xenograft in SCID mice; type: in vivo; conditions: after 59 days
# Method: SCID mice were injected with Saos-2-His-273 cells. […] Tumor volumes were measured once in three days for two months.
# All animal studies were approved by the local animal ethical committee and animal care was in accordance with institutional guidelines. For toxicity assessment, 12 SCID mice (average weight 25 g) were divided in 4 groups. […] Control animals were injected with PBS. We measured weights of the mice for 1 month after the last injection. […] After 3 days the mice were divided into 4 groups. […] Injections were performed twice daily for 3 days. Tumor volume was measured during 2 months.
# In the untreated control group, the average tumor volume after 59 days was 555.7±284 mm^3 (means±SE, n=3).
# T1 sequence (P04637 whole entry): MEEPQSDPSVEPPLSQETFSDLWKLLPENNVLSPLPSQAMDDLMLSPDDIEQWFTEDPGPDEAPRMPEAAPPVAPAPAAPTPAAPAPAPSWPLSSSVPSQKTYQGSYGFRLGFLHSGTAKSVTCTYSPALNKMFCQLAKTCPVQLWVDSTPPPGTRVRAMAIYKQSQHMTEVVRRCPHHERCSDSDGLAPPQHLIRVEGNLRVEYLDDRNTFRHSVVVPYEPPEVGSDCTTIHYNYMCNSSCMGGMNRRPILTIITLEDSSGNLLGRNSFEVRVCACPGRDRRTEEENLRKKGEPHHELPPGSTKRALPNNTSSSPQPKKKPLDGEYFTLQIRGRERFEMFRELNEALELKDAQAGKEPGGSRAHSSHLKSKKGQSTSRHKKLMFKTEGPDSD
SMILES,"concentration at which growth of mutant p53 containing cells is selectively suppressed ([1]; tet− vs tet+ and parental Saos-2, 48 hours, 2.5 to 25 μM tested) [µM]",inhibition of colony formation [2] [%],"induction of apoptosis ([3]; 48 hours, no doxycycline)",p53 dependence of apoptosis induction [3],time after treatment at which apoptosis/cell death is evident [3] [h],induction of apoptosis ([4]; 48 hours),increase in the PAb1620+ fraction [5],reduction in PAb240+ fraction [5],mutant p53 proteins whose specific DNA binding was restored [6],induction of MDM2 and p21 [7],MDM2 and p21 protein levels [8],growth of cells expressing mutant p53 (growth curves) ([1]; mutant p53 expressed),growth of cells in the absence of mutant p53 expression ([1]; no mutant p53 expression),"induction of apoptosis ([3]; 50, 75 and 125 µM, mutant p53 expressed)","induction of apoptosis ([4]; 50, 75 and […], no p53 expression)",DO-1+ fraction [5],lacZ reporter induction [9],average tumor volume ([10]; 20 mg/kg i.v. twice a day for three days) [mm^3],average tumor volume ([10]; intratumor 20 mg/kg twice a day for three days) [mm^3],average tumor volume ([10]; intravenous 100 mg/kg twice a day for three days) [mm^3]
CCC(=O)OCN1C(=O)C=CC1=O [MIRA-1],25,48,apoptosis was induced,occurred only in the presence of p53 expression,6 to 12,not in p53-null Saos-2 cells,About 40%,~20%,3 out of 14,induced MDM2 and p21,did not cause any significant changes,–,–,–,–,–,–,–,–,–
"O=C1C2CCN(CC2)C1(CO)CO [PRIMA-1, 2,2-bis(hydroxymethyl)-1-azabicyclo[2,2,2]octan-3-one]",–,–,–,occurred only in the presence of p53 expression,48,–,40%,corresponding decrease,13 out of 14,induced MDM2 and p21,did not cause any significant changes,completely inhibited growth,minor reduction in growth rate,apoptosis was induced,much less efficient,remained unchanged,appearance of lacZ-positive cells,53±48.5,5.3±2.7,11.7±8
